What follows are molecules tested on Echinochloa crus-galli (assay: Test Example 1: herbicidal effect test by treatment of rice paddy soil (immediately after seeding)). Settings: 120 g/10a active ingredient, dry weight vs untreated area, 14 days after treatment.
Assay type: in vivo
In short: (§1)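 Pre-emergence paddy water application, 120 g a.i./10 ares, applied immediately post-seeding into ~3 cm flood; glasshouse; duplicate pots; dry weight at 14 d → % inhibition = (1 − treated/untreated) × 100.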

| Structure (SMILES) | Herbicidal rate (%) Echinochloa crus-galli [%] |
| --- | --- |
| CCC(C)Cn1oc(=O)c(Cc2ccccc2N(C(C)=O)S(=O)(=O)C(F)(F)F)c1C (stereo not drawn) [Compound 1-300] | 100 |
| CCC(C)n1oc(=O)c(Cc2ccccc2N(C(=O)OCCOC)S(=O)(=O)C(F)(F)F)c1C (stereo not drawn) [Compound 1-731] | 90 |
| Cc1c(Cc2ccccc2N(C(=O)OCC(C)C)S(=O)(=O)C(F)(F)F)c(=O)on1C(C)(C)C [Compound 1-668] | 90 |

These molecules were tested on Scirpus juncoides in the same assay as above. Settings: 120 g/10a active ingredient, dry weight vs untreated area, 14 days after treatment.
Assay type: in vivo
In short: as §1

| Structure (SMILES) | Herbicidal rate (%) Scirpus juncoides [%] |
| --- | --- |
| CCC(C)Cn1oc(=O)c(Cc2ccccc2N(C(C)=O)S(=O)(=O)C(F)(F)F)c1C (stereo not drawn) [Compound 1-300] | 90 |
| CCC(C)n1oc(=O)c(Cc2ccccc2N(C(=O)OCCOC)S(=O)(=O)C(F)(F)F)c1C (stereo not drawn) [Compound 1-731] | 90 |
| Cc1c(Cc2ccccc2N(C(=O)OCC(C)C)S(=O)(=O)C(F)(F)F)c(=O)on1C(C)(C)C [Compound 1-668] | 90 |

The molecules below were run on broad leaf weeds (Lindernia pyxidaria and Monochoria vaginalis) in the same assay as above. Settings: Lindernia pyxidaria, 120 g/10a active ingredient, dry weight vs untreated area, 14 days after treatment.
Assay type: in vivo
In short: as §1

| Structure (SMILES) | Herbicidal rate (%) Lindernia pyxidaria [%] |
| --- | --- |
| CCC(C)Cn1oc(=O)c(Cc2ccccc2N(C(C)=O)S(=O)(=O)C(F)(F)F)c1C (stereo not drawn) [Compound 1-300] | 80 |
| CCC(C)n1oc(=O)c(Cc2ccccc2N(C(=O)OCCOC)S(=O)(=O)C(F)(F)F)c1C (stereo not drawn) [Compound 1-731] | 90 |
| Cc1c(Cc2ccccc2N(C(=O)OCC(C)C)S(=O)(=O)C(F)(F)F)c(=O)on1C(C)(C)C [Compound 1-668] | 90 |

Same assay, conditions: Monochoria vaginalis, 120 g/10a active ingredient, dry weight vs untreated area, 14 days after treatment

| Structure (SMILES) | Herbicidal rate (%) Monochoria vaginalis [%] |
| --- | --- |
| CCC(C)Cn1oc(=O)c(Cc2ccccc2N(C(C)=O)S(=O)(=O)C(F)(F)F)c1C (stereo not drawn) [Compound 1-300] | 70 |
| CCC(C)n1oc(=O)c(Cc2ccccc2N(C(=O)OCCOC)S(=O)(=O)C(F)(F)F)c1C (stereo not drawn) [Compound 1-731] | 90 |
| Cc1c(Cc2ccccc2N(C(=O)OCC(C)C)S(=O)(=O)C(F)(F)F)c(=O)on1C(C)(C)C [Compound 1-668] | 90 |

The molecules below were run on Echinochloa crus-galli (assay: Test Example 2: herbicidal effect test by treatment during growing period in paddy rice cultivation (seven days after seeding)). Settings: 120 g/10a active ingredient, assessed 14 days after treatment, dry weight vs untreated area.
Assay type: in vivo
In short: (§2)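 Paddy soil in Wagner pots with compound fertilizer, puddled; 30 seeds per species sown at 0–1 cm, flooded ~3 cm, greenhouse. Seven days after seeding, water-diluted emulsions were dropped into the water at 120 g active ingredient per 10 ares. Duplicate pots; herbicidal rate from dry weight versus untreated, 14 days after treatment.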

| Structure (SMILES) | Herbicidal rate (%) Echinochloa crus-galli [%] |
| --- | --- |
| CCC(C)Cn1oc(=O)c(Cc2ccccc2N(C(C)=O)S(=O)(=O)C(F)(F)F)c1C (stereo not drawn) [Compound 1-300] | 100 |
| CCC(C)n1oc(=O)c(Cc2ccccc2N(C(=O)OCCOC)S(=O)(=O)C(F)(F)F)c1C (stereo not drawn) [Compound 1-731] | 90 |
| Cc1c(Cc2ccccc2N(C(=O)OCC(C)C)S(=O)(=O)C(F)(F)F)c(=O)on1C(C)(C)C [Compound 1-668] | 90 |

What follows are molecules tested on Scirpus juncoides in the same assay as above. Settings: 120 g/10a active ingredient, assessed 14 days after treatment, dry weight vs untreated area.
Assay type: in vivo
In short: as §2

| Structure (SMILES) | Herbicidal rate (%) Scirpus juncoides [%] |
| --- | --- |
| CCC(C)Cn1oc(=O)c(Cc2ccccc2N(C(C)=O)S(=O)(=O)C(F)(F)F)c1C (stereo not drawn) [Compound 1-300] | 80 |
| CCC(C)n1oc(=O)c(Cc2ccccc2N(C(=O)OCCOC)S(=O)(=O)C(F)(F)F)c1C (stereo not drawn) [Compound 1-731] | 90 |
| Cc1c(Cc2ccccc2N(C(=O)OCC(C)C)S(=O)(=O)C(F)(F)F)c(=O)on1C(C)(C)C [Compound 1-668] | 90 |

The molecules below were run on broad leaf weeds (Lindernia pyxidaria and Monochoria vaginalis) in the same assay as above. Settings: Lindernia pyxidaria, 120 g/10a active ingredient, assessed 14 days after treatment, dry weight vs untreated area.
Assay type: in vivo
In short: as §2

| Structure (SMILES) | Herbicidal rate (%) Lindernia pyxidaria [%] |
| --- | --- |
| CCC(C)Cn1oc(=O)c(Cc2ccccc2N(C(C)=O)S(=O)(=O)C(F)(F)F)c1C (stereo not drawn) [Compound 1-300] | 70 |
| CCC(C)n1oc(=O)c(Cc2ccccc2N(C(=O)OCCOC)S(=O)(=O)C(F)(F)F)c1C (stereo not drawn) [Compound 1-731] | 90 |
| Cc1c(Cc2ccccc2N(C(=O)OCC(C)C)S(=O)(=O)C(F)(F)F)c(=O)on1C(C)(C)C [Compound 1-668] | 90 |

Same assay, conditions: Monochoria vaginalis, 120 g/10a active ingredient, assessed 14 days after treatment, dry weight vs untreated area

| Structure (SMILES) | Herbicidal rate (%) Monochoria vaginalis [%] |
| --- | --- |
| CCC(C)Cn1oc(=O)c(Cc2ccccc2N(C(C)=O)S(=O)(=O)C(F)(F)F)c1C (stereo not drawn) [Compound 1-300] | 90 |
| CCC(C)n1oc(=O)c(Cc2ccccc2N(C(=O)OCCOC)S(=O)(=O)C(F)(F)F)c1C (stereo not drawn) [Compound 1-731] | 90 |
| Cc1c(Cc2ccccc2N(C(=O)OCC(C)C)S(=O)(=O)C(F)(F)F)c(=O)on1C(C)(C)C [Compound 1-668] | 90 |

What follows are molecules tested on Amaranthus viridis (assay: Test Example 3: herbicidal effect test by treatment of dry field farming soil (one day after seeding)). Settings: 120 g/10a active ingredient, evaluated 14 days after treatment.
Assay type: in vivo
In short: (§3)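 Pre-emergence soil treatment: alluvial dry-field soil, 20 seeds per species mixed into top 1 cm, emulsion diluted in water sprayed one day after seeding at 100 L per 10 ares (120 g active ingredient per 10 ares). Duplicate pots; herbicidal rate (%) from dry weight vs untreated at 14 days.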

| Structure (SMILES) | herbicidal rate, Amaranthus viridis [%] |
| --- | --- |
| CCC(C)Cn1oc(=O)c(Cc2ccccc2N(C(C)=O)S(=O)(=O)C(F)(F)F)c1C (stereo not drawn) [Compound 1-300] | 80 |
| CCC(C)n1oc(=O)c(Cc2ccccc2N(C(=O)OCCOC)S(=O)(=O)C(F)(F)F)c1C (stereo not drawn) [Compound 1-731] | 90 |
| Cc1c(Cc2ccccc2N(C(=O)OCC(C)C)S(=O)(=O)C(F)(F)F)c(=O)on1C(C)(C)C [Compound 1-668] | 90 |

Each molecule was assayed on Chenopodium album in the same assay as above. Settings: 120 g/10a active ingredient, evaluated 14 days after treatment.
Assay type: in vivo
In short: as §3

| Structure (SMILES) | herbicidal rate, Chenopodium album [%] |
| --- | --- |
| CCC(C)Cn1oc(=O)c(Cc2ccccc2N(C(C)=O)S(=O)(=O)C(F)(F)F)c1C (stereo not drawn) [Compound 1-300] | 60 |
| CCC(C)n1oc(=O)c(Cc2ccccc2N(C(=O)OCCOC)S(=O)(=O)C(F)(F)F)c1C (stereo not drawn) [Compound 1-731] | 90 |
| Cc1c(Cc2ccccc2N(C(=O)OCC(C)C)S(=O)(=O)C(F)(F)F)c(=O)on1C(C)(C)C [Compound 1-668] | 90 |

The molecules below were run on Echinochloa crus-galli in the same assay as above. Settings: 120 g/10a active ingredient, evaluated 14 days after treatment.
Assay type: in vivo
In short: as §3

| Structure (SMILES) | herbicidal rate, Echinochloa crus-galli [%] |
| --- | --- |
| CCC(C)Cn1oc(=O)c(Cc2ccccc2N(C(C)=O)S(=O)(=O)C(F)(F)F)c1C (stereo not drawn) [Compound 1-300] | 90 |
| CCC(C)n1oc(=O)c(Cc2ccccc2N(C(=O)OCCOC)S(=O)(=O)C(F)(F)F)c1C (stereo not drawn) [Compound 1-731] | 90 |
| Cc1c(Cc2ccccc2N(C(=O)OCC(C)C)S(=O)(=O)C(F)(F)F)c(=O)on1C(C)(C)C [Compound 1-668] | 90 |

These molecules were tested on southern crabgrass in the same assay as above. Settings: 120 g/10a active ingredient, evaluated 14 days after treatment.
Assay type: in vivo
In short: as §3

| Structure (SMILES) | herbicidal rate, southern crabgrass [%] |
| --- | --- |
| CCC(C)Cn1oc(=O)c(Cc2ccccc2N(C(C)=O)S(=O)(=O)C(F)(F)F)c1C (stereo not drawn) [Compound 1-300] | 100 |
| CCC(C)n1oc(=O)c(Cc2ccccc2N(C(=O)OCCOC)S(=O)(=O)C(F)(F)F)c1C (stereo not drawn) [Compound 1-731] | 90 |
| Cc1c(Cc2ccccc2N(C(=O)OCC(C)C)S(=O)(=O)C(F)(F)F)c(=O)on1C(C)(C)C [Compound 1-668] | 90 |

These molecules were tested on Amaranthus viridis (assay: Test Example 4: herbicidal effect test by treatment of leave and stem in dry field farming (seven days after seeding)). Settings: 120 g/10a active ingredient; emulsion sprayed seven days after seeding; evaluated 14 days after treatment.
Assay type: in vivo
In short: (§4)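 Weeds were seeded at 20 seeds per species into the top 1 cm of alluvial upland soil in pots, then sprayed 7 days after seeding with water-diluted emulsifiable concentrate at 100 L/10 a, giving 120 g active ingredient/10 a. Duplicate pots; herbicidal rate (%) was 14 days post-treatment, from dry weight versus untreated.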

| Structure (SMILES) | herbicidal effect (herbicidal rate), Amaranthus viridis [%] |
| --- | --- |
| CCC(C)Cn1oc(=O)c(Cc2ccccc2N(C(C)=O)S(=O)(=O)C(F)(F)F)c1C (stereo not drawn) [Compound 1-300] | 70 |
| CCC(C)n1oc(=O)c(Cc2ccccc2N(C(=O)OCCOC)S(=O)(=O)C(F)(F)F)c1C (stereo not drawn) [Compound 1-731] | 40 |
| Cc1c(Cc2ccccc2N(C(=O)OCC(C)C)S(=O)(=O)C(F)(F)F)c(=O)on1C(C)(C)C [Compound 1-668] | 40 |

Each molecule was assayed on Chenopodium album in the same assay as above. Settings: 120 g/10a active ingredient; emulsion sprayed seven days after seeding; evaluated 14 days after treatment.
Assay type: in vivo
In short: as §4

| Structure (SMILES) | herbicidal effect (herbicidal rate), Chenopodium album [%] |
| --- | --- |
| CCC(C)Cn1oc(=O)c(Cc2ccccc2N(C(C)=O)S(=O)(=O)C(F)(F)F)c1C (stereo not drawn) [Compound 1-300] | 60 |
| CCC(C)n1oc(=O)c(Cc2ccccc2N(C(=O)OCCOC)S(=O)(=O)C(F)(F)F)c1C (stereo not drawn) [Compound 1-731] | 40 |
| Cc1c(Cc2ccccc2N(C(=O)OCC(C)C)S(=O)(=O)C(F)(F)F)c(=O)on1C(C)(C)C [Compound 1-668] | 40 |

The molecules below were run on Echinochloa crus-galli in the same assay as above. Settings: 120 g/10a active ingredient; emulsion sprayed seven days after seeding; evaluated 14 days after treatment.
Assay type: in vivo
In short: as §4

| Structure (SMILES) | herbicidal effect (herbicidal rate), Echinochloa crus-galli [%] |
| --- | --- |
| CCC(C)Cn1oc(=O)c(Cc2ccccc2N(C(C)=O)S(=O)(=O)C(F)(F)F)c1C (stereo not drawn) [Compound 1-300] | 90 |
| CCC(C)n1oc(=O)c(Cc2ccccc2N(C(=O)OCCOC)S(=O)(=O)C(F)(F)F)c1C (stereo not drawn) [Compound 1-731] | 90 |
| Cc1c(Cc2ccccc2N(C(=O)OCC(C)C)S(=O)(=O)C(F)(F)F)c(=O)on1C(C)(C)C [Compound 1-668] | 90 |

Each molecule was assayed on southern crabgrass in the same assay as above. Settings: 120 g/10a active ingredient; emulsion sprayed seven days after seeding; evaluated 14 days after treatment.
Assay type: in vivo
In short: as §4

| Structure (SMILES) | herbicidal effect (herbicidal rate), southern crabgrass [%] |
| --- | --- |
| CCC(C)Cn1oc(=O)c(Cc2ccccc2N(C(C)=O)S(=O)(=O)C(F)(F)F)c1C (stereo not drawn) [Compound 1-300] | 90 |
| CCC(C)n1oc(=O)c(Cc2ccccc2N(C(=O)OCCOC)S(=O)(=O)C(F)(F)F)c1C (stereo not drawn) [Compound 1-731] | 90 |
| Cc1c(Cc2ccccc2N(C(=O)OCC(C)C)S(=O)(=O)C(F)(F)F)c(=O)on1C(C)(C)C [Compound 1-668] | 90 |
